# Experimental data taken from US20230346827A1 (priority 2020, published 2023).
# Legend:
# ALS patients = assay: Serum lactate in ALS patients, dextran sulfate 2 mg/kg s.c. weekly for ten weeks (Example 14); type: in vivo, human; parameters: serum lactate levels: unit not given here
# Protocol: Dextran sulfate (ILB®, Tikomed AB, Viken, Sweden, WO 2016/076780) was administered at 2 mg/kg by […] subcutaneous injection once a week for ten weeks to 8 human patients suffering from ALS.
# Peripheral venous blood samples were collected from patients before (week 0) and after dextran sulfate administration (week 5 and week 10) after at least 15 minutes of complete rest, using the standard tourniquet procedure, from the antecubital vein into a single VACUETTE® polypropylene tube containing serum separator and clot activator (Greiner-Bio One GmbH, Kremsmunster, Austria). After 30 mins at room temperature (20-25° C.), blood withdrawals were centrifuged at 1,890 × g for 10 min to get serum aliquots.
# A serum aliquot of 500 µl was supplemented with 1 ml of HPLC-grade acetonitrile, vortexed for 60 secs, centrifuged at the maximum speed in a top-bench centrifuge to precipitate proteins. Supernatants were washed with large volumes of HPLC-grade chloroform to remove organic solvent, centrifuged and the upper aqueous phases were transferred to different tubes, clearly labeled to identify the sample and stored at -80° C. until analyzed to determine different water-soluble compounds.
# Mouse cortical neurons = assay: Gene expression array and pathway analysis, cortical neurons, LMW-DS 0.01 mg/ml 48 h; type: cell-based; details: for number of genes: abolished nutrient effect / number of genes: new effect induced by LMW-DS / number of genes: total / number of genes: enhanced response to nutrients / number of genes: not different from control: cortical neurons
# Protocol: For each cell line, n=8 × 25 cm^2 culture flasks were set up. Two flasks were harvested for each cell type on the day of treatment (24 hours after seeding). This represents the Day0 time point. From the remaining flasks, three flasks were treated with Control Medium and three were treated with Culture Medium (CM) containing LMW-DS to give a final concentration of 0.01 mg/ml. Cells from the treated flasks were collected after 48 hours. Therefore the collected data represent (a) untreated cells (Day0 Controls and Day2 Controls) and (b) cells treated with LMW-DS (ILB®, Tikomed AB, Viken, Sweden, WO 2016/076780) for 48 hours (Day2 LMW-DS treated).
# Medium was prepared by adding 10 ml B-27 Serum-Free Supplement and 2.5 ml GlutaMAX™-1 Supplement to 500 ml of Neurobasal medium. The medium was pre-warmed to 37° C. Cells from 12 vials were thawed sequentially in a 37° C. water bath for no longer than 2 min and gently transferred into a 15 ml tube. 9 ml of medium was gently added drop-wise to each. The cell suspension was mixed by inverting the tubes carefully twice.
# The cells were centrifuged for 5 minutes at 200 x g. Supernatant was removed (to the last 0.5 ml) and cells were gently re-suspended by trituration. The cells from the 12 vials were mixed and distributed equally into the previously coated 25 cm^2 flasks (n=8). Cells were incubated at 37° C. with 5% CO2 for 24 hours.
# LMW-DS was provided at a stock concentration of 20 mg/ml and was kept in a temperature monitored refrigerator at 4° C. A fresh 100x LMW-DS stock (1.0 mg/ml) was prepared in sterile DMEM-F12. The concentrated drug stock was sterile filtered and added to the respective culture media (19.6 ml CM and 0.4 ml LMW-DS stock solution). The Control was made using 19.6 ml CM and 0.4 ml of DMEM-F12. LMW-DS and CM were added to the respective flasks (5 ml each) to reach the 0.01 mg/ml concentration of LMW-DS in each dish with a total of 10 ml CM each.
# CM was aspirated into a clean and labelled 15 ml Falcon tube. The flasks (without culture medium) were placed into the -80° C. freezer for 30 minutes. The CM in the Falcon tubes was spun at 3000 x g for 5 minutes. Supernatant was removed and the small pellet was re-suspended in 2.5 ml Trizol:Water (4:1) solution at room temperature (RT, ~22° C.).
# Two aliquots of 1 ml lysate were removed from each sample and 200 µl of chloroform was added to each (0.2 ml of chloroform per 1 ml of TRIzol Reagent used during the cell lysis step) and the tube was shaken vigorously. Samples were stored at RT for 2-3 minutes and subsequently centrifuged at 12,000 x g for 15 minutes at 4° C.
# The RNA was precipitated from the aqueous phase by adding an equal amount of 100% ethanol. The precipitated RNA was fixed onto a Spin Cartridge, washed twice and dried. The RNA was eluted in 50 µl warm RNase-Free Water. The amount and quality of the purified RNA was measured by Nanodrop. The RNA was stored at -80° C. before transfer to Source Bioscience for Array analysis.
# The expression data were downloaded into separate files for each cell line. The ‘Background corrected’ expression is the data from the “gProcessedSignal” of the arrays that is the result of the background signal extracted from the actual signal of the relevant probe. This is the most often used variable in array analysis. The background corrected signal was log2 transformed for all samples for statistical analysis. To reduce the false discovery rate in the samples, the signals that were below ‘expression level’ were removed. The ‘below expression’ level was set at 5 for the log2 transformed expression values.
# Based on the expression pattern of the Control probes on each array it was decided to carry out Median Centering for all arrays before analysis to reduce the variability of the results. […]
# [1] = pathway analysis of gene expression
substance,measurement,setting,value
sodium salt of dextran sulfate [LMW-DS],increase of serum lactate levels vs Week 0,ALS patients; after 5 weeks of treatment,29.8%
same,serum lactate levels,ALS patients; after 5 weeks of treatment,2.31±1.02
same,increase of serum lactate levels vs Week 0,ALS patients; after 10 weeks of treatment,70%
same,serum lactate levels,ALS patients; after 10 weeks of treatment,3.02±1.59
same,number of differentially expressed genes,Mouse cortical neurons; D0 control to D2 LMW-DS treated,609
same,number of differentially expressed genes,Mouse cortical neurons; D0 control to D2 LMW-DS treated (second statement),247
same,number of genes: abolished nutrient effect,Mouse cortical neurons; no effect,572
same,number of genes: new effect induced by LMW-DS,Mouse cortical neurons; no effect,19
same,number of genes: total,Mouse cortical neurons; no effect,591
same,number of genes: abolished nutrient effect,Mouse cortical neurons; significant downregulation,7
same,number of genes: enhanced response to nutrients,Mouse cortical neurons; significant downregulation,158
same,number of genes: new effect induced by LMW-DS,Mouse cortical neurons; significant downregulation,22
same,number of genes: not different from control,Mouse cortical neurons; significant downregulation,95
same,number of genes: total,Mouse cortical neurons; significant downregulation,282
same,number of genes: abolished nutrient effect,Mouse cortical neurons; significant upregulation,33
same,number of genes: enhanced response to nutrients,Mouse cortical neurons; significant upregulation,43
same,number of genes: new effect induced by LMW-DS,Mouse cortical neurons; significant upregulation,7
same,number of genes: not different from control,Mouse cortical neurons; significant upregulation,221
same,number of genes: total,Mouse cortical neurons; significant upregulation,304
same,number of genes: abolished nutrient effect,Mouse cortical neurons; total,612
same,number of genes: enhanced response to nutrients,Mouse cortical neurons; total,612
same,number of genes: new effect induced by LMW-DS,Mouse cortical neurons; total,48
same,number of genes: not different from control,Mouse cortical neurons; total,316
same,number of genes: total,Mouse cortical neurons; total,1177
same,"deleterious effects of oxidative stress (amyloid-β and Lewy body pathology, mitochondrial dysfunction)",Mouse cortical neurons; [1],prevent and reverse
same,glutamate production,Mouse cortical neurons; [1],did not alter
